This is an account of results in ChEMBL document CHEMBL5365395, “Optimization of a series of novel, potent and selective Macrocyclic SYK inhibitors” (Bioorg Med Chem Lett, 2023).

Molecules are shown by their SMILES.

Data set [1] in a line: Hydrolytic stability of the compound at pH 1 assessed as half life. Format: physicochemical. As to conditions: buffer.
Data set [2] in a line: Hydrolytic stability of the compound at pH 10 assessed as half life. The format is physicochemical. As to conditions: buffer.
The next data set relates to SUD4. As to the kind of experiment: Cytotoxicity against human SU-DHL-4 cells assessed as reduction in cell viability.
Data set [3] is described as follows: Intrinsic clearance in rat hepatocytes assessed per million cells. Format: ADME, cell-based, Hepatocyte. As to conditions: read-out: CLH.
A short description of data set [4]: Apparent permeability across apical to basolateral side in human Caco-2 cells at pH 6.5 after 45 to 120 mins by LC-MS/MS analysis. Format: ADME, cell-based. As to conditions: Caco-2, pH 6.5, time 45-120 min. On the technique in general: Caco-2 monolayers are a common model of the intestinal barrier.
A short description of data set [5]: Hydrolytic stability of the compound at pH 7.4 assessed as half life. As to conditions: buffer. Format: physicochemical.
The nature of data set [6]: Intrinsic Clearance in human liver microsome. Format: ADME. As to conditions: liver microsomes, read-out: CLH. On the technique in general: Liver microsomes are vesicles of endoplasmic reticulum, rich in cytochrome P450 enzymes.
The target of data set [7] is Voltage-gated inwardly rectifying potassium channel KCNH2 (Homo sapiens, UniProt Q12809). Kind of data set: Inhibition of human ERG by patch clamp assay. Format: toxicity. On the technique in general: Patch clamp records ionic current or voltage across a cell membrane.
Data set [8] is described as follows: Lipophilicity, logD of the compound in buffer/octanol volume ratio of 100:1 at pH 7.4 by shake flask method. The format is physicochemical.
Data set [9] is described as follows: Plasma protein binding in Han-Wistar rat assessed as fraction unbound. Format: ADME, cell-free.
Data set [10] can be described thus: Oral bioavailability in Han-Wistar rat at 2 umol/kg. The format is ADME, organism-based. As to conditions: in vivo, at 2 µmol/kg.
The nature of data set [11]: Volume of distribution at steady state in Beagle Dog at 1 umol/kg, iv. The format is ADME, Canis lupus familiaris. As to conditions: in vivo, dose 1 µmol/kg, read-out: Vdss.
Data set [12] in a line: Intrinsic clearance in Han-Wistar rat hepatocytes. The format is ADME, cell-based, Hepatocyte.
The nature of data set [13]: Oral bioavailability in Beagle Dog at 2 umol/kg. The format is ADME, organism-based, Canis lupus familiaris. As to conditions: in vivo, at 2 µmol/kg.
The nature of data set [14]: Intrinsic clearance in Beagle Dog hepatocytes. Format: ADME, cell-based, Canis lupus familiaris, Hepatocyte.
Data set [15] is described as follows: Volume of distribution at steady state in Han-Wistar rat at 1 umol/kg, iv. Format: ADME. As to conditions: in vivo, dose 1 µmol/kg, read-out: Vdss.
Data set [16] in a line: Clearance in Beagle Dog at 1 umol/kg, iv. As to conditions: in vivo, dose 1 µmol/kg. The format is ADME, Canis lupus familiaris.
Data set [17] is described as follows: Clearance in Han-Wistar rat at 1 umol/kg, iv. Format: ADME. As to conditions: in vivo, dose 1 µmol/kg.
The target of data set [18] is Mitogen-activated protein kinase kinase kinase 9 (Homo sapiens) (UniProt P80192). As to the kind of experiment: Inhibition of MAP3K9 (unknown origin) at 0.1 uM relative to control.
The target of data set [19] is Tyrosine-protein kinase SYK (Homo sapiens, UniProt P43405). As to the kind of experiment: Inhibition of full length recombinant human SYK.

Voltage-gated inwardly rectifying potassium channel KCNH2, sequence (Q12809 whole entry): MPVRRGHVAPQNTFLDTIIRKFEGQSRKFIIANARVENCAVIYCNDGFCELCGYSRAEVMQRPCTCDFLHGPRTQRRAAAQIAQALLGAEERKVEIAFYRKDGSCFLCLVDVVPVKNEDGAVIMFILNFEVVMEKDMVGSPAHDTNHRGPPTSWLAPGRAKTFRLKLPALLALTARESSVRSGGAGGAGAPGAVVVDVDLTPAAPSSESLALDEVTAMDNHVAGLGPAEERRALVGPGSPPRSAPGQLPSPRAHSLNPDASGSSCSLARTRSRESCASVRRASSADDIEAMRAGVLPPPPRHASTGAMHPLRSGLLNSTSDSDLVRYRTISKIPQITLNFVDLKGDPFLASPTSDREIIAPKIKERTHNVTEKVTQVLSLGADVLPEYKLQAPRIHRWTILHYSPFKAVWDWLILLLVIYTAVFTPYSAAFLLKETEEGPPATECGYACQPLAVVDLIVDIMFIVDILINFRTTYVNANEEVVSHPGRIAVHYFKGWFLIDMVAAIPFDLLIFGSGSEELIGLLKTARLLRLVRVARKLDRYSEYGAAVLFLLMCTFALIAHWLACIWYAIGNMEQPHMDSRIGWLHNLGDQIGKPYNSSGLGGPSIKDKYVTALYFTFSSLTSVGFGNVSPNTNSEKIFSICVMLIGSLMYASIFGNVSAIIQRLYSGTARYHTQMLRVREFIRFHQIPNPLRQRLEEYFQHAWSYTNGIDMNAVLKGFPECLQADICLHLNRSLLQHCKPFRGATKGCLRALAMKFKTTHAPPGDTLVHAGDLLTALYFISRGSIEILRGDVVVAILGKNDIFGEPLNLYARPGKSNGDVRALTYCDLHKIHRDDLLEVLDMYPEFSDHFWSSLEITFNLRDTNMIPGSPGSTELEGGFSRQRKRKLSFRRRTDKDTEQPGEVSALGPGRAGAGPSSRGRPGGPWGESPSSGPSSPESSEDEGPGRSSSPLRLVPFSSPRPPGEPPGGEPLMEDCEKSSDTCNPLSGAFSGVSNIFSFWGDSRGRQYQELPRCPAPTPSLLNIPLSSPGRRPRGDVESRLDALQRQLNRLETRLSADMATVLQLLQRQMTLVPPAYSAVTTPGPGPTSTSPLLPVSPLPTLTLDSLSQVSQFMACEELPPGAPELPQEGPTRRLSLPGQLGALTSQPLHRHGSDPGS
Mitogen-activated protein kinase kinase kinase 9 (Homo sapiens), sequence (P80192 whole entry, looked up): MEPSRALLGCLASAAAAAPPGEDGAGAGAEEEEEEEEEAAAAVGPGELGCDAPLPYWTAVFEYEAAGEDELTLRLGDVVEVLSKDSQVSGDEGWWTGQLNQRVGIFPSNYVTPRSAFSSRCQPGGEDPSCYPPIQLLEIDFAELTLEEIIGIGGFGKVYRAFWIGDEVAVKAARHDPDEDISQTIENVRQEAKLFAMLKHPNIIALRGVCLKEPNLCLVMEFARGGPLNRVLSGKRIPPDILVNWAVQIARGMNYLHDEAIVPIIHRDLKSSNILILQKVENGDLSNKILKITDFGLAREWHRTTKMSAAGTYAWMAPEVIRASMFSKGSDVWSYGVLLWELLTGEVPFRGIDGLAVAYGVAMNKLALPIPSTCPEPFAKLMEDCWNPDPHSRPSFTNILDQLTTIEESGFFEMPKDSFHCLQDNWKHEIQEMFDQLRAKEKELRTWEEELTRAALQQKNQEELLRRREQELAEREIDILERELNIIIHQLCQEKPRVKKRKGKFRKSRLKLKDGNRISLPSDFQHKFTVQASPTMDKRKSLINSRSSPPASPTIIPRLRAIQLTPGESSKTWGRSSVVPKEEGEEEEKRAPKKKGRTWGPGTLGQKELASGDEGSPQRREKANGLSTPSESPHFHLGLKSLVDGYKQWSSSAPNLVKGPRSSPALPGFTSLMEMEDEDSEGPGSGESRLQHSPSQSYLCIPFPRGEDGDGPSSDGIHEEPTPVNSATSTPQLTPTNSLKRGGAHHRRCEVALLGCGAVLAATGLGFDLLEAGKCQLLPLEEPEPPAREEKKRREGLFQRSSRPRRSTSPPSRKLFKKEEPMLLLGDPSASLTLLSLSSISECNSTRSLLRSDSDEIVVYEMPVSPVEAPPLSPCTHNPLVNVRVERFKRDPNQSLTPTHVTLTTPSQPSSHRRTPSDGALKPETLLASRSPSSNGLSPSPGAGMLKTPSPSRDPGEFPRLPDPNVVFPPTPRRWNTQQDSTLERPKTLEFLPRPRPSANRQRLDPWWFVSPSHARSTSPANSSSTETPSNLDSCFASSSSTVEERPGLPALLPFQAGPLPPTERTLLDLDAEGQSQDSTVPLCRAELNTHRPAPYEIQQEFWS

For the molecule `Cc1nn2cc1CN(C)CCOCCNC(=O)c1nn(CCOC(=O)C(C)(C)C)c3ccc(cc13)Nc1nccc-2n1`, the half-life (usually the time needed for the level to fall by half in the phase considered) is over 100 h in data set [1], 5 h in [2] and 30 h in data set [5]. The IC50 (as a rule, the concentration that inhibits the measured activity by half) in the data set with SUD4 was found to be 1000 nM; in [7] it was 1100 nM. For the same molecule, in data set [3], the hepatocyte CLint came out at 163 µL/min/1e6 cells. Besides, the Papp A→B (usually how fast a substance crosses the layer from the apical side) in [4] came out at 8 ×10⁻⁶ cm/s. Further, the microsomal CLint in data set [6] is over 300 µL/min/mg. Also, the logD (in general, the decadic logarithm of the distribution of all forms, ionised or not, between an organic phase and buffer at a given pH) in data set [8] was determined as 3.1.

As to `CC(=O)OCCn1nc2c3cc(ccc31)Nc1nccc(n1)-n1cc(c(C)n1)CN(C)CCOCCNC2=O`, the half-life is 0.7 h in data set [1], under 0.5 h in [2] and 6.8 h in data set [5]. In addition, the IC50 with SUD4 turned out to be 990 nM; in [7], 2100 nM. Also, the hepatocyte CLint in [3] worked out at 198 µL/min/1e6 cells. Further, in [4], the apical-to-basolateral permeability (Papp A→B) worked out at 3.6 ×10⁻⁶ cm/s. Besides, the microsomal CLint in data set [6] was over 300 µL/min/mg. Besides, the logD in data set [8] was 1.9.

`Cc1nn2cc1CN(C)CCOCCNC(=O)c1nn(C3COC3)c3ccc(cc13)Nc1nccc-2n1`: the IC50 amounted to 550 nM in the data set with SUD4 and 3700 nM in data set [7]. Also, the hepatocyte CLint in data set [3] is 4.6 µL/min/1e6 cells. The Papp A→B in [4] is 3.7 ×10⁻⁶ cm/s. Moreover, the microsomal CLint in data set [6] was found to be 28 µL/min/mg. In addition, the logD in data set [8] came to 1.7.

As for `Cc1nn2cc1CN(C)N1CCC(CCNC(=O)c3nn(C)c4ccc(cc34)Nc3nccc-2n3)CC1`, the half-inhibitory concentration (IC50) in the data set on SUD4 amounted to 350 nM. Moreover, the hepatocyte CLint in [3] was found to be 15 µL/min/1e6 cells. For the same molecule, in data set [6], the microsomal CLint amounted to 76 µL/min/mg. In addition, the logD in data set [8] was determined as 2.3.

Take `Cc1nn2cc1CN(C)CCOCCNC(=O)c1nn(C[C@@H](C)O)c3ccc(cc13)Nc1nccc-2n1`: the IC50 with SUD4 was 260 nM; in [7], 22000 nM. For the same molecule, in [3], the hepatocyte CLint amounted to 4.4 µL/min/1e6 cells. For the same molecule, the microsomal CLint in data set [6] is 39 µL/min/mg. Besides, the logD in data set [8] turned out to be 1.4.

`Cc1nn2cc1CN(C)CCOCCNC(=O)c1nn(C[C@H](C)O)c3ccc(cc13)Nc1nccc-2n1`: the IC50 is 390 nM in the data set with SUD4 and over 22000 nM in [7]. For the same molecule, in data set [3], the hepatocyte CLint was determined as 6.5 µL/min/1e6 cells. In addition, the microsomal CLint in [6] worked out at 34 µL/min/mg. Also, the pH-dependent lipophilicity (logD) in [8] was determined as 1.3.

In the case of `Cc1nn2cc1CN(C)CCOCCNC(=O)c1nn(CC(C)(C)O)c3ccc(cc13)Nc1nccc-2n1`, the figures for the half-maximal inhibitory concentration (IC50) (in the data set on SUD4; in data set [7]) were 480 nM and 8000 nM, respectively. In addition, in data set [3], the hepatocyte CLint amounted to 3.4 µL/min/1e6 cells. For the same molecule, the microsomal CLint in [6] was 52 µL/min/mg. Besides, in data set [8], the logD turned out to be 1.6.

For the molecule `Cc1nn2cc1CN(C)N1CCC(O)(CCNC(=O)c3nn(C)c4ccc(cc34)Nc3nccc-2n3)CC1`, the IC50 was found to be 100 nM in the data set on SUD4 and 8800 nM in data set [7]. Besides, the hepatocyte CLint in data set [3] came out at 2.1 µL/min/1e6 cells. Further, the Papp A→B in [4] came to 1.9 ×10⁻⁶ cm/s. Further, in [6], the microsomal CLint amounted to 28 µL/min/mg. Further, the logD in data set [8] came out at 1.6.

`CC(=O)OC(C)(C)Cn1nc2c3cc(ccc31)Nc1nccc(n1)-n1cc(c(C)n1)CN(C)CCOCCNC2=O`: the half-life in data set [1] is 6.5 h; in data set [2], 2.9 h; in [5] it was 72 h. The values for the 50% inhibitory concentration (IC50) (with SUD4; in [7]) were 850 nM and 1200 nM, respectively. The hepatocyte CLint in [3] came out at 63 µL/min/1e6 cells. Besides, in data set [4], the Papp A→B was 13 ×10⁻⁶ cm/s. Besides, the microsomal CLint in [6] was determined as 229 µL/min/mg. In addition, the logD in [8] was found to be 2.5.

`Cc1nn2cc1CN(C)CCCCCNC(=O)c1nn(C)c3ccc(cc13)Nc1nccc-2n1`: the IC50 in the data set with SUD4 came to 2200 nM. Moreover, the hepatocyte CLint in data set [3] amounted to 12 µL/min/1e6 cells. For the same molecule, the microsomal CLint in [6] turned out to be 44 µL/min/mg. In addition, in data set [8], the logD was 2.7.

Take `Cc1nn2cc1CN(C)CCOCCNC(=O)c1nn(CCO)c3ccc(cc13)Nc1nccc-2n1`: the Fu in [9] is 16%. Besides, the values for the IC50 (in the data set with SUD4; in [7]) were 280 nM and over 39000 nM, respectively. In data set [3], the hepatocyte CLint is under 1.6 µL/min/1e6 cells. In [4], the Papp A→B is 1.12 ×10⁻⁶ cm/s. The bioavailability (usually the share of a dose that reaches the circulation, judged against a reference dose that is usually intravenous) in data set [10] is 0.9%; in data set [13] it was 0.38%. The Vd in [11] is 1.9 L/kg; in data set [15], 2.1 L/kg. The CLH was under 1.5 µL/min/1e6 cells in data set [12] and under 1 µL/min/1e6 cells in [14]. Further, the microsomal CLint in data set [6] turned out to be 23 µL/min/mg. For the same molecule, the clearance (commonly the rate of elimination divided by the concentration) turned out to be 9 mL/min/kg in data set [16] and 33 mL/min/kg in data set [17]. Further, the log distribution coefficient (logD) in data set [8] stood at 1.2.

On to `Cc1nn2cc1CN(C)CCOCCNC(=O)c1nn(C)c3ccc(cc13)Nc1nccc-2n1`, for which, in data set [9], the Fu came to 7%. The inhibition – broadly, the change of the read-out against control, counted positive when it falls – in data set [18] was over 70%. Further, the results for the IC50 (in the data set on SUD4; in data set [19]; in data set [7]) were 570 nM, 0.13 nM and 850 nM, respectively. The hepatocyte CLint in data set [3] is 8.1 µL/min/1e6 cells. Further, in data set [4], the Papp A→B worked out at 19 ×10⁻⁶ cm/s. Further, the bioavailability in data set [10] turned out to be 64%. For the same molecule, the CLH in data set [12] was 8.1 µL/min/1e6 cells. The microsomal CLint in data set [6] was 25 µL/min/mg. Further, the Vd in data set [15] is 1.9 L/kg. Also, the clearance in [17] stood at 16 mL/min/kg. Further, the logD in data set [8] came out at 1.8.

For `CNC(=O)c1nn(C)c2ccc(Nc3nccc(-n4cc(CN(C)C)c(C)n4)n3)cc12`, the concentration for half-maximal inhibition (IC50) with SUD4 turned out to be 240 nM.

With `Cc1nn2cc1CN(C)N1CC(CNC(=O)c3nn(C)c4ccc(cc34)Nc3nccc-2n3)C1`, in the data set with SUD4, the concentration for half-maximal inhibition (IC50) was 1200 nM. The hepatocyte CLint in data set [3] is 27 µL/min/1e6 cells. In addition, the microsomal CLint in [6] is 18 µL/min/mg. In data set [8], the log distribution coefficient (logD) is 1.2.
